Measured values published in patent publication US20250332300A1 (priority 2024, published 2025).
Counter-ions that a name gives are not always drawn. Like-named read-outs stand apart in the source and are kept apart here. Positions of bridges follow the written chain, without caps; N, C: chain ends. Non-standard residues stand in square brackets, D forms with d. Residues, ends and D or L forms follow the SMILES beside them. Triazole bridges read from a SMILES are 1,4-linked. Chains are numbered I, II in the order given. *: point of attachment. DOTA = O=C(O)CN1CCN(CC(=O)O)CCN(CC(=O)*)CCN(CC(=O)O)CC1; PEG10 = NCCOCCOCCOCCOCCOCCOCCOCCOCCOCCOCCC(=O)O; Trp(5-OH) = N[C@@H](Cc1c[nH]c2ccc(O)cc12)C(=O)O; NMePhe(4-F) = CN[C@@H](Cc1ccc(F)cc1)C(=O)O; Lys(N3) = [N-]=[N+]=NCCCC[C@H](N)C(=O)O; NMehPhe = CN[C@@H](CCc1ccccc1)C(=O)O; Aad = N[C@@H](CCCC(=O)O)C(=O)O; Gly(cPr) = N[C@H](C(=O)O)C1CC1; NMeK = CN[C@@H](CCCCN)C(=O)O; NMeDap = CN[C@@H](CN)C(=O)O; Orn = NCCC[C@H](N)C(=O)O; Pra = C#CC[C@H](N)C(=O)O; Sar = CNCC(=O)O

How the values were obtained:
Type in all cases: binding
human HER2 (23-652) [1] = biological target: T1, human HER2 (23-652) (Homo sapiens, UniProt P04626); test: Surface plasmon resonance (SPR) for assessment of peptide affinity, human HER2; set-up: towards human HER2 (23-652) and mouse HER2 (23-653); made in house
Description: Each protein was immobilized either onto a SA sensorchip (Cytiva, BR-1005-31) or CM5 sensorchip (Cytiva, BR-1005-30) to a density of 800-2000 RU. […] For the assay setup the same conditions (flow rate, running buffer, peptide dilution) as described above were used. In a first step the Anti Fc IgG Ab (from Human Antibody Capture Kit, Ref. 29234600, Cytiva) was diluted into acetate pH 5.0 at 25 ug/mL and immobilized at a flow rate of 10 uL/min over 360 s to reach a density around 6000 RU. […] The peptides were tested with an association time of 280 s followed by a dissociation time of 3000 s at a flow rate of 30 uL/min. The regeneration was done using 3 M magnesium chloride regeneration solution as obtained with a contact time of 30 s at a flow rate of 10 uL/min. Curve fitting was performed using the BiacoreTM 8K evaluation software.

mouse HER2 (23-653) = mouse HER2 (23-653) (Mus musculus, UniProt P70424); test: TR-FRET competition assay for peptide potency, mouse HER2; set-up: mouse HER2 (23-653) using a Cy5 labeled peptide as a probe; made in house; host or cells: mammalian cells
Description: (§1) Both proteins containing a His-, Avi-tag and biotin in Nterminus, were expressed in mammalian cells and produced in house. […] Standard assay conditions consist of 20 uL total volume in white 384-well plates (Greiner), in 10 mM HEPES buffer containing 150 mM NaCl, 3 mM EDTA, 0.05% Tween20 and 1% final DMSO. […] The ratiometric FRET assay readout is calculated from the ratio of the raw data of the two distinct fluorescence signals measured in time resolved mode (fluorescence 665 nm/fluorescence 620 nm). IC50 values were calculated with the standard Novartis in-house assay data analysis software (Helios software application, Novartis Institutes for BioMedical Research, unpublished) using the methods described in Comput. Methods. Programs. Biomed. 2006, 82, 31-37 (regression algorithms for nonlinear dose-response curve fitting).

human HER2 (23-652) [2] = biological target: T1, human HER2 (23-652); test: TR-FRET competition assay for peptide potency, human HER2; set-up: towards human HER2 (23-652) and mouse HER2 (23-653); made in house; host or cells: mammalian cells
Description: as §1

[3] = SPR, human HER2 extracellular domain, 25° C., 1:1 binding model; read-out: huHER2-SPR-ONC KD
[4] = TR-FRET competition with Cy5 labeled peptide probe, 0.1 nM human HER2, 24 h incubation, read-out: huHER2 TR-FRET IC50
[5] = TR-FRET competition with Cy5 labeled peptide probe, 0.1 nM mouse HER2, 24 h incubation, read-out: moHER2 TR-FRET IC50

| Compound | Kd (human HER2 (23-652) [1]; [3]) | IC50 (human HER2 (23-652) [2]; [4]) | IC50 (mouse HER2 (23-653); [5]) | other results |
| --- | --- | --- | --- | --- |
| CC(=O)NCCCC[C@H]1C(=O)N[C@@H](Cc2c[nH]c3ccc(O)cc23)C(=O)N[C@@H](Cc2c[nH]c3ccccc23)C(=O)N[C@@H]([C@H](C)O)C(=O)N(C)[C@H](C(=O)N(C)[C@@H](Cc2ccc(F)cc2)C(=O)N[C@@H](CCCCNC(=O)CN2CCN(CC(=O)O)CCN(CC(=O)O)CCN(CC(=O)O)CC2)C(N)=O)CNC(=O)CCC[C@H](NC(C)=O)C(=O)N[C@@H](Cc2ccc(O)cc2)C(=O)N[C@@H](CO)C(=O)N(C)[C@@H](CCc2ccccc2)C(=O)N1C [Example C6] | 0.3 nM | 0.5 nM |  | IC50 (mouse HER2 (23-653); value in parentheses (**): recalculated after further repetition, read-out: moHER2 TR-FRET IC50, recalculated value achieved after further repetition): 1 nM; IC50 (human HER2 (23-652) [2]; value in parentheses (**): recalculated after further repetition, read-out: huHER2 TR-FRET IC50, recalculated value achieved after further repetition): 0.3 nM |
| CC(=O)NCCCC[C@H]1C(=O)N[C@@H](Cc2c[nH]c3ccc(O)cc23)C(=O)N[C@@H](Cc2c[nH]c3ccccc23)C(=O)N[C@@H](C2CC2)C(=O)N(C)[C@H](C(=O)N(C)[C@@H](Cc2ccc(F)cc2)C(=O)N[C@@H](CCCCNC(=O)CN2CCN(CC(=O)O)CCN(CC(=O)O)CCN(CC(=O)O)CC2)C(=O)O)CNC(=O)CCC[C@H](NC(C)=O)C(=O)N[C@@H](Cc2ccc(O)cc2)C(=O)N[C@@H](CO)C(=O)N(C)[C@@H](CCc2ccccc2)C(=O)N1C [Example C12] | 0.4 nM | 0.3 nM | 1 nM |  |
| CC(=O)NCCCC[C@H]1C(=O)N[C@@H](Cc2c[nH]c3ccc(O)cc23)C(=O)N[C@@H](Cc2c[nH]c3ccccc23)C(=O)N[C@@H](C2CC2)C(=O)N(C)[C@H](C(=O)N(C)[C@@H](Cc2ccc(F)cc2)C(N)=O)CNC(=O)CCC[C@H](NC(=O)CCOCCOCCOCCOCCOCCOCCOCCOCCOCCOCCNC(=O)CN2CCN(CC(=O)O)CCN(CC(=O)O)CCN(CC(=O)O)CC2)C(=O)N[C@@H](Cc2ccc(O)cc2)C(=O)N[C@@H](CO)C(=O)N(C)[C@@H](CCc2ccccc2)C(=O)N1C [Example C5] ({DOTA-PEG10}-[Aad]YS[NMehPhe][NMeK](Ac)[Trp(5-OH)]W[Gly(cPr)][NMeDap][NMePhe(4-F)]-NH2; lactam 1-9) | 0.7 nM | 0.5 nM | 0.7 nM |  |
| CC(=O)NCCCC[C@H]1C(=O)N[C@@H](Cc2c[nH]c3ccc(O)cc23)C(=O)N[C@@H](Cc2c[nH]c3ccccc23)C(=O)N[C@@H](C2CC2)C(=O)N(C)[C@H](C(=O)N(C)[C@@H](Cc2ccc(F)cc2)C(=O)N[C@@H](CCCNC(=O)CN2CCN(CC(=O)O)CCN(CC(=O)O)CCN(CC(=O)O)CC2)C(N)=O)CNC(=O)CCC[C@H](NC(C)=O)C(=O)N[C@@H](Cc2ccc(O)cc2)C(=O)N[C@@H](CO)C(=O)N(C)[C@@H](CCc2ccccc2)C(=O)N1C [Example C9] (Ac-[Aad]YS[NMehPhe][NMeK](Ac)[Trp(5-OH)]W[Gly(cPr)][NMeDap][NMePhe(4-F)][Orn](DOTA)-NH2; lactam 1-9) | < 0.1 nM | < 0.1 nM | 0.2 nM |  |
| COCCOCCOCCOCCOCCOCCOCCOCCOCCOCCOCCOCCC(=O)N[C@H]1CCCC(=O)NC[C@@H](C(=O)N(C)[C@@H](Cc2ccc(F)cc2)C(=O)N[C@@H](CCCCN)C(N)=O)N(C)C(=O)[C@H](C2CC2)NC(=O)[C@H](Cc2c[nH]c3ccccc23)NC(=O)[C@H](Cc2c[nH]c3ccc(O)cc23)NC(=O)[C@H](CCCCNC(C)=O)N(C)C(=O)[C@H](CCc2ccccc2)N(C)C(=O)[C@H](CO)NC(=O)[C@H](Cc2ccc(O)cc2)NC1=O [Example A43, TFA salt] | 0.2 nM |  | 0.2 nM | IC50 (human HER2 (23-652) [2]; read-out: huHER2 TR-FRET IC50): < 0.1 nM |
| CC(=O)NCCCC[C@H]1C(=O)N[C@@H](Cc2c[nH]c3ccc(O)cc23)C(=O)N[C@@H](Cc2c[nH]c3ccccc23)C(=O)N[C@@H](C2CC2)C(=O)N(C)[C@H](C(=O)N(C)[C@@H](Cc2ccc(F)cc2)C(=O)N[C@@H](CCCCNC(=O)CN2CCN(CC(=O)O)CCN(CC(=O)O)CCN(CC(=O)O)CC2)C(N)=O)CNC(=O)CCC[C@H](N)C(=O)N[C@@H](Cc2ccc(O)cc2)C(=O)N[C@@H](CO)C(=O)N(C)[C@@H](CCc2ccccc2)C(=O)N1C [Example C18] | 0.1 nM | 0.1 nM | 0.6 nM |  |
| CC(=O)NCCCC[C@H]1C(=O)N[C@@H](Cc2c[nH]c3ccc(O)cc23)C(=O)N[C@@H](Cc2c[nH]c3ccccc23)C(=O)N[C@@H](C2CC2)C(=O)N(C)[C@H](C(=O)N(C)[C@@H](Cc2ccc(F)cc2)C(=O)N[C@@H](CCCCNC(=O)CC[C@H](C(=O)O)N2CCN(CC(=O)O)CCN(CC(=O)O)CCN(CC(=O)O)CC2)C(N)=O)CNC(=O)CCC[C@H](NC(C)=O)C(=O)N[C@@H](Cc2ccc(O)cc2)C(=O)N[C@@H](CO)C(=O)N(C)[C@@H](CCc2ccccc2)C(=O)N1C [Example B12] | < 0.1 nM |  | < 0.1 nM | IC50 (human HER2 (23-652) [2]; read-out: huHER2 TR-FRET IC50): < 0.1 nM |
| CC(=O)NCCCC[C@H]1C(=O)N[C@@H](Cc2c[nH]c3ccc(O)cc23)C(=O)N[C@@H](Cc2c[nH]c3ccccc23)C(=O)N[C@@H](C2CC2)C(=O)N(C)[C@H](C(=O)N(C)[C@@H](Cc2ccc(F)cc2)C(=O)N[C@@H](CCCCNC(=O)CN2CCN(CC(=O)O)CCN(CC(=O)O)CCN(CC(=O)O)CC2)C(N)=O)CNC(=O)CCC[C@H](NC(=O)CC(=O)O)C(=O)N[C@@H](Cc2ccc(O)cc2)C(=O)N[C@@H](CO)C(=O)N(C)[C@@H](CCc2ccccc2)C(=O)N1C [Example C10] | < 0.1 nM | < 0.1 nM | < 0.1 nM |  |
| CCCCCCCCCCCC(CCCCCCCCCCC(=O)O)(C(=O)O)C(=O)NCCOCCOCCOCCOCCOCCOCCOCCOCCOCCOCCOCCOCCOCCOCCOCCOCCOCCOCCOCCOCCOCCOCCOCCOCCC(=O)N[C@H]1CCCC(=O)NC[C@@H](C(=O)N(C)[C@@H](Cc2ccc(F)cc2)C(=O)N[C@@H](CCCCNC(=O)CN2CCN(CC(=O)O)CCN(CC(=O)O)CCN(CC(=O)O)CC2)C(N)=O)N(C)C(=O)[C@H](C2CC2)NC(=O)[C@H](Cc2c[nH]c3ccccc23)NC(=O)[C@H](Cc2c[nH]c3ccc(O)cc23)NC(=O)[C@H](CCCCNC(C)=O)N(C)C(=O)[C@H](CCc2ccccc2)N(C)C(=O)[C@H](CO)NC(=O)[C@H](Cc2ccc(O)cc2)NC1=O (stereo partly shown) [Example G1] | 0.7 nM | 1 nM | 3.8 nM |  |
| COCCOCCOCCOCCOCCOCCOCCOCCOCCOCCOCCOCCC(=O)N[C@H]1CCCC(=O)NC[C@@H](C(=O)N(C)[C@@H](Cc2ccc(F)cc2)C(=O)N[C@@H](CCCCNC(=O)CN2CCN(CC(=O)O)CCN(CC(=O)O)CC2)C(N)=O)N(C)C(=O)[C@H](C2CC2)NC(=O)[C@H](Cc2c[nH]c3ccccc23)NC(=O)[C@H](Cc2c[nH]c3ccc(O)cc23)NC(=O)[C@H](CCCCNC(C)=O)N(C)C(=O)[C@H](CCc2ccccc2)N(C)C(=O)[C@H](CO)NC(=O)[C@H](Cc2ccc(O)cc2)NC1=O [Example B11] | < 0.1 nM |  | 0.2 nM | IC50 (human HER2 (23-652) [2]; read-out: huHER2 TR-FRET IC50): < 0.1 nM |
| CC(=O)NCCCC[C@H]1C(=O)N[C@@H](Cc2c[nH]c3ccc(O)cc23)C(=O)N[C@@H](Cc2c[nH]c3ccccc23)C(=O)N[C@@H](C2CC2)C(=O)N(C)[C@H](C(=O)N(C)[C@@H](Cc2ccc(F)cc2)C(=O)N[C@@H](CCCCNC(=O)CN2CCN(CC(=O)O)CCN(CC(=O)O)CCN(CC(=O)O)CC2)C(N)=O)CNC(=O)CCC[C@H](NC(=O)Cc2nnn[nH]2)C(=O)N[C@@H](Cc2ccc(O)cc2)C(=O)N[C@@H](CO)C(=O)N(C)[C@@H](CCc2ccccc2)C(=O)N1C [Example C13] |  |  |  | Kd (human HER2 (23-652) [1]; read-out: huHER2-SPR-ONC KD; SPR, human HER2 extracellular domain, 25° C., 1:1 binding model): < 0.1 nM; IC50 (mouse HER2 (23-653); read-out: moHER2 TR-FRET IC50, TR-FRET competition with Cy5 labeled peptide probe, 0.1 nM mouse HER2, 24 h incubation): 0.1 nM; IC50 (human HER2 (23-652) [2]; read-out: huHER2 TR-FRET IC50, TR-FRET competition with Cy5 labeled peptide probe, 0.1 nM human HER2, 24 h incubation): < 0.1 nM |
| I: Ac-[Pra][Sar][Sar][Sar][Sar][Sar][Sar][Sar][Sar][Sar][Sar][Sar][Sar][Sar][Sar]K(DOTA)[Sar][Sar][Sar][Sar][Sar][Sar][Sar][Sar][Sar][Sar][Sar][Sar][Sar][Sar][Pra]-NH2 / II: Ac-[Aad]YS[NMehPhe][NMeK](Ac)[Trp(5-OH)]W[Gly(cPr)][NMeDap][NMePhe(4-F)][Lys(N3)]-NH2 / III: Ac-[Aad]YS[NMehPhe][NMeK](Ac)[Trp(5-OH)]W[Gly(cPr)][NMeDap][NMePhe(4-F)][Lys(N3)]-NH2 (triazole I:1-II:11, I:31-III:11; lactam II:1-II:9, III:1-III:9) [Example C4] | < 0.1 nM | 0.1 nM | 0.4 nM |  |
